In assay [1] the test system is Glo-Response ARE-luc2P HEK293 cell line. Briefly: ARE luciferase reporter cell-based assay.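 Further: luciferase signal tracks Nrf2 activation of the ARE once compounds disrupt KEAP1-Nrf2 binding, read with One-Glo reagent, DMSO serving as low control.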 The settings on record: Homo sapiens, HEK293, 24 h, average of results obtained.
For assay [2], the target named is Kelch domain of human KEAP1 (321-624 aa) (Homo sapiens (Human), UniProt Q14145). Briefly: KEAP1 KELCH ThermoFluor binding assay.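 Further: Ligand-induced melting temperature shift of E. coli-expressed KEAP1 Kelch protein, Kd estimated from concentration-response curves of ΔTm.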 The settings on record: KEAP Kelch […], 1,8-ANS, pH 7.0, average of results obtained, read-out: Tf Kd.
Chain of Kelch domain of human KEAP1 (321-624 aa) (Q14145 321-624): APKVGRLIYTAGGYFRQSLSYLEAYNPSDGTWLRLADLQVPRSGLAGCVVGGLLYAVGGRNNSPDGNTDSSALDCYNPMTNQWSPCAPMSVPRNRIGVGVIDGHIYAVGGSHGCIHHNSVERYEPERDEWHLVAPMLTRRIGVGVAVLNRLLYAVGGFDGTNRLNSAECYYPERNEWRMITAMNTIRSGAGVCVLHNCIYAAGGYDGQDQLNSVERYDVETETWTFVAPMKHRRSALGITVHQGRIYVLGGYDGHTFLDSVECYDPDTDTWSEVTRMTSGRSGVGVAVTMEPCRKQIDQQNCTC

Molecule `Cc1ccc(C(CC(=O)O)c2ccn3c(C(F)(F)F)nnc3c2C)cc1CN1C[C@@H]2CN(C)CCN2c2ncccc2S1(=O)=O` (mixture of isomers) [Example 177, (R/S)-3-(4-Methyl-3-(((*S)-9-methyl-5,5-dioxido-7,7a,8,9,10,11-hexahydro-6H-pyrazino[2,1-d]pyrido[2,3-f][1,2,5]thiadiazepin-6-yl)methyl)phenyl)-3-(8-methyl-3-(trifluoromethyl)-[1,2,4]triazolo[4,3-a]pyridin-7-yl)propanoic Acid] displayed an EC50 in assay [1] of 1390 nM. The Kd in assay [2] came out at 49 nM.
For `Cc1ccc([C@H](CC(=O)O)c2ccn3c(C(F)(F)F)nnc3c2C)cc1CN1CC2(CC2)Oc2ncc(C#N)cc2S1(=O)=O` (single isomer, unassigned) [Example 200, (*S)-3-(3-((8′-Cyano-1′,1′-dioxidospiro[cyclopropane-1,4′-pyrido[2,3-b][1,4,5]oxathiazepin]-2′(3′H)-yl)methyl)-4-methylphenyl)-3-(8-methyl-3-(trifluoromethyl)-[1,2,4]triazolo[4,3-a]pyridin-7-yl)propanoic Acid], in that order: 61 nM and below 1 nM.
For `Cc1cc2cc([C@H](CC(=O)O)c3ccc(C)c(CN4C[C@H]5CCCN5c5ncccc5S4(=O)=O)c3)n(C)c2nn1` (single isomer, unassigned) [Example 436, (*R)-3-(3,7-Dimethyl-7H-pyrrolo[2,3-c]pyridazin-6-yl)-3-(3-(((R)-5,5-dioxido-7a,8,9,10-tetrahydropyrido[2,3-f]pyrrolo[2,1-d][1,2,5]thiadiazepin-6(7H)-yl)methyl)-4-methylphenyl)propanoic Acid], in that order: 2230 nM and below 1 nM.
In assay [1], `Cc1ccc([C@H](CC(=O)O)c2ccn3c(C(F)(F)F)nnc3c2C)cc1CN1C[C@H]2CCCN2c2ncccc2S1(=O)=O` (single isomer, unassigned) [Example 389, (*S)-3-(3-(((R)-5,5-Dioxido-7a,8,9,10-tetrahydropyrido[2,3-f]pyrrolo[2,1-d][1,2,5]thiadiazepin-6(7H)-yl)methyl)-4-methylphenyl)-3-(8-methyl-3-(trifluoromethyl)-[1,2,4]triazolo[4,3-a]pyridin-7-yl)propanoic Acid] gave an EC50 of 12.1 nM. For the same molecule, the Kd in assay [2] is below 1 nM.
In the same order, the values of `Cc1cnc2c(c1)S(=O)(=O)N(Cc1cc([C@H](c3ccc4c(nnn4C4CC4)c3C)C(C)(C)C(=O)O)ccc1C)CC1(CNC1)O2` (single isomer, unassigned) [Example 645, (*R)-3-(1-Cyclopropyl-4-methyl-1H-benzo[d][1,2,3]triazol-5-yl)-2,2-dimethyl-3-(4-methyl-3-((8′-methyl-1′,1′-dioxidospiro[azetidine-3,4′-pyrido[2,3-b][1,4,5]oxathiazepin]-2′(3′H)-yl)methyl)phenyl)propanoic Acid] are 1.5 nM and below 1 nM.
In the same order, the values of `Cc1cnc2c(c1)S(=O)(=O)N(Cc1cc([C@H](c3ccn4c(C(F)(F)F)nnc4c3C)C(C)(C)C(=O)O)ccc1C)CC1(CC1)O2` (single isomer, unassigned) [Example 315, (*R)-2,2-Dimethyl-3-(4-methyl-3-((8′-methyl-1′,1′-dioxidospiro[cyclopropane-1,4′-pyrido[2,3-b][1,4,5]oxathiazepin]-2′(3′H)-yl)methyl)phenyl)-3-(8-methyl-3-(trifluoromethyl)-[1,2,4]triazolo[4,3-a]pyridin-7-yl)propanoic Acid] are 148 nM and 287 nM.
Molecule `Cc1ccc([C@H](c2ccn3c(C(F)(F)F)nnc3c2C)C(C)(C)C(=O)O)cc1CN1CC2(CCOCC2)Oc2nc(NCCN3CCNCC3)c(C)cc2S1(=O)=O` (single isomer, unassigned) [Example 366] registered an EC50 in assay [1] of 407 nM. The Kd in assay [2] was below 1 nM.
In the same order, the values of `Cc1ccc([C@@H](c2ccn3c(C(F)(F)F)nnc3c2C)C(C)(C)C(=O)O)cc1CN1CC2(CCOCC2)Oc2nc(N[C@H](C)CCO)ccc2S1(=O)=O` (single isomer, unassigned) [Example 119, (*S)-3-(3-((7′-(((R)-4-Hydroxybutan-2-yl)amino)-1′,1′-dioxido-2,3,5,6-tetrahydrospiro[pyran-4,4′-pyrido[2,3-b][1,4,5]oxathiazepin]-2′(3′H)-yl)methyl)-4-methylphenyl)-2,2-dimethyl-3-(8-methyl-3-(trifluoromethyl)-[1,2,4[triazolo[4,3-a]pyridine-7-yl)propanoic Acid] are 166 nM and below 1 nM.
In the same order, the values of `Cc1ccc([C@H](CC(=O)O)c2ccc3c(nnn3CC3CC3)c2C(F)F)cc1CN1C[C@@H]2CCCCN2c2ncccc2S1(=O)=O` (single isomer, unassigned) [Example 172, (*S)-3-(1-(Cyclopropylmethyl)-4-(difluoromethyl)-1H-benzo[d][1,2,3]triazol-5-yl)-3-(3-(((*S)-5,5-dioxido-7,7a,8,9,10,11-hexahydro-6H-dipyrido[2,1-d:2′,3′-f][1,2,5]thiadiazepin-6-yl)methyl)-4-methylphenyl)propanoic Acid] are 19 nM and below 1 nM.
`Cc1ccc([C@@H](c2ccn3c(C(F)(F)F)nnc3c2C)C(C)(C)C(=O)O)cc1CN1CC2(COC2)Oc2ncccc2S1(=O)=O` (single isomer, unassigned) [Example 615, (*S)-3-(3-((1′,1′-dioxidospiro[oxetane-3,4′-pyrido[2,3-b][1,4,5]oxathiazepin]-2′(3′H)-yl)methyl)-4-methylphenyl)-2,2-dimethyl-3-(8-methyl-3-(trifluoromethyl)-[1,2,4]triazolo[4,3-a]pyridine-7-yl)propanoic Acid] gave an EC50 in assay [1] of 1.09 nM. Also, the Kd in assay [2] was below 1 nM.
As for `Cc1ccc(C(CC(=O)O)c2ccn3c(C(F)F)nnc3c2C)cc1CN1C[C@@H]2CCCCN2c2ncccc2S1(=O)=O` (stereo in doubt) [Example 446, 3-(3-(Difluoromethyl)-8-methyl-[1,2,4]triazolo[4,3-a]pyridin-7-yl)-3-(3-(((*S)-5,5-dioxido-7,7a,8,9,10,11-hexahydro-6H-dipyrido[2,1-d:2′,3′-f][1,2,5]thiadiazepin-6-yl)methyl)-4-methylphenyl)propanoic Acid], the EC50 in assay [1] came to 23.8 nM. In addition, the Kd in assay [2] is below 1 nM.
Consider `Cc1ccc([C@H](CC(=O)O)c2ccc3c(nnn3CC3CC3)c2C)cc1CN1C[C@H]2CCCCN2c2ncccc2S1(=O)=O` (single isomer, unassigned) [Example 236, (*S)-3-(1-(Cyclopropylmethyl)-4-methyl-1H-benzo[d][1,2,3]triazol-5-yl)-3-(3-(((*R)-5,5-dioxido-7,7a,8,9,10,11-hexahydro-6H-dipyrido[2,1-d:2′,3′-f][1,2,5]thiadiazepin-6-yl)methyl)-4-methylphenyl)propanoic Acid], for which it took 6.8 nM to reach a half-maximal effect in assay [1] (EC50). For the same molecule, in assay [2], the Kd was below 1 nM.
In the same order, the values of `Cc1ccc([C@@H](CC(=O)O)c2ccn3c(C(F)(F)F)nnc3c2C)cc1CN1C[C@H]2CN(C)CCN2c2ncccc2S1(=O)=O` (single isomer, unassigned) [Example 182, (*R)-3-(4-Methyl-3-(((*R)-9-methyl-5,5-dioxido-7,7a,8,9,10,11-hexahydro-6H-pyrazino[2,1-d]pyrido[2,3-f][1,2,5]thiadiazepin-6-yl)methyl)phenyl)-3-(8-methyl-3-(trifluoromethyl)-[1,2,4]triazolo[4,3-a]pyridin-7-yl)propanoic Acid] are 1390 nM and 180 nM.
`Cc1ccc(C(CC(=O)O)c2ccc3c(nnn3C3CC3)c2C)cc1CN1C[C@@H]2CCCCN2c2ccccc2S1(=O)=O` (mixture of isomers) [Example 217, (R/S)-3-(1-Cyclopropyl-4-methyl-1H-benzo[d][1,2,3]triazol-5-yl)-3-(3-(((*S)-5,5-dioxido-7,7a,8,9,10,11-hexahydro-6H-benzo[f]pyrido[2,1-d][1,2,5]thiadiazepin-6-yl)methyl)-4-methylphenyl)propanoic Acid] returned an EC50 in assay [1] of 11 nM. In assay [2], the Kd was below 1 nM.
For `Cc1ccc([C@@H](c2ccn3c(C(F)F)nnc3c2C)C(C)(C)C(=O)O)cc1CN1CC2(CCOCC2)Oc2nc(OCCN3CCCCC3)c(C)cc2S1(=O)=O` (single isomer, unassigned) [Example 379, (*S)-3-(3-(Difluoromethyl)-8-methyl-[1,2,4]triazolo[4,3-a]pyridine-7-yl)-2,2-dimethyl-3-(4-methyl-3-((8′-methyl-1′,1′-dioxido-7′-(2-(piperidin-1-yl)ethoxy)-2,3,5,6-tetrahydrospiro[pyran-4,4′-pyrido[2,3-b][1,4,5]oxathiazepin]-2′(3′H)-yl)methyl)phenyl)propanoic Acid], in that order: 12.3 nM and below 1 nM.
For `CCn1nnc2c(C)c([C@@H](CC(=O)O)c3ccc(C)c(CN4CC5(COC5)Oc5ccccc5S4(=O)=O)n3)ccc21` (single isomer, unassigned) [Example 239, (*R)-3-(6-((1,1-Dioxidospiro[benzo[b][1,4,5]oxathiazepine-4,3′-oxetan]-2(3H)-yl)methyl)-5-methylpyridin-2-yl)-3-(1-ethyl-4-methyl-1H-benzo[d][1,2,3]triazol-5-yl)propanoic Acid], in that order: 44 nM and 1.9 nM.
In the same order, the values of `Cc1ccc(C(CC(=O)O)c2ccn3c(C(F)F)nnc3c2C)cc1CN1CC2(COC2)Oc2ccccc2S1(=O)=O` (stereo not shown) [Example 466, 3-(3-(Difluoromethyl)-8-methyl-[1,2,4]triazolo[4,3-a]pyridin-7-yl)-3-(3-((1,1-dioxidospiro[benzo[b][1,4,5]oxathiazepine-4,3′-oxetan]-2(3H)-yl)methyl)-4-methylphenyl)propanoic Acid] are 124 nM and below 1 nM.

Source of the values: US10947252B2, “Inhibitors of KEAP1-Nrf2 protein-protein interaction” (Janssen Pharmaceutica NV, priority 2018, dated 2021).
